pIC50: −log10 of the molar value. Where a name gives a salt, the structure may show the parent alone.

The source of these data is patent publication US8648068B2, “Heterocycloalkyl-containing thienopyrimidines for pharmaceutical compositions” (Boehringer Ingelheim International GmbH, priority 2010, dated 2014).

The target of the test is T1, human Mnk2a (Homo sapiens, UniProt Q9HBH9).
T1 construct: made in house; host or cells: E. coli BL21 (vector pGEX-4T1)
In words: Mnk2a in vitro kinase assay (indirect fluorescence polarization). In kind it is biochemical. Particulars: GST-Mnk2a pre-activated with ERK2, 20 μM ATP, 30 μM substrate peptide; read-out: MNK2 IC50. The method, boiled down:
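Indirect competitive fluorescence polarization: kinase-generated phospho-product displaces a fluorophore-labelled phospho-peptide from a phospho-specific antibody. Enzyme is N-terminal GST-Mnk2a from E. coli, activated with pre-activated ERK2 and 50 μM ATP; substrate is an amidated 12-mer peptide around eIF4E Ser209.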
A general note: Polarisation of emitted light reports the rotation of a fluorescent probe.

T1 sequence (Q9HBH9 whole entry): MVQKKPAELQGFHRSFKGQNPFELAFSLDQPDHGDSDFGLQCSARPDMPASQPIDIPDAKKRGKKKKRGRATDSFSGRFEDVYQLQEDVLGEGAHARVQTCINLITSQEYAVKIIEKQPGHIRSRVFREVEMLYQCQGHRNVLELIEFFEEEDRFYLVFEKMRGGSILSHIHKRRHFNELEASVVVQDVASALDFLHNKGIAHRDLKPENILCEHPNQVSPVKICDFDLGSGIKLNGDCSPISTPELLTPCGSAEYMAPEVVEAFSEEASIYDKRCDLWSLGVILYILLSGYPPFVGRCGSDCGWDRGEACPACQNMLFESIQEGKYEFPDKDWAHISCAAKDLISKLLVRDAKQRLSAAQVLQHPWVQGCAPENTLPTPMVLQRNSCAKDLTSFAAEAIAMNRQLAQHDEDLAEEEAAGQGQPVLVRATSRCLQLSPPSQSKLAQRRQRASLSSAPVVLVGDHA

As to `CC(=O)N1CC[C@@H](Oc2cc(F)ccc2Nc2ncnc3sc(C(N)=O)c(C)c23)C1` [Example 98, 4-[2-((R)-1-Acetyl-pyrrolidin-3-yloxy)-4-fluoro-phenylamino]-5-methyl-thieno[2,3-d]pyrimidine-6-carboxylic acid amide], the pIC50 is 7.03.

For `Cc1c(C(=O)NCCCn2ccnc2)sc2ncnc(Nc3ccc(F)cc3OC3CCOCC3)c12` [Example 220], the negative logarithm of the IC50 (pIC50) was 7.38.

`Cc1c(C(=O)NCCS(N)(=O)=O)sc2ncnc(Nc3ccc(F)cc3OC3CCOCC3)c12` [Example 196]: the pIC50 was 7.47.

As for `Cc1c(C(=O)NC2CCN(C)C[C@@H]2O)sc2ncnc(Nc3ccc(F)cc3OC3CCOCC3)c12` (stereo partly drawn) [Example 257, 4-[4-Fluoro-2-(tetrahydro-pyran-4-yloxy)-phenylamino]-5-methyl-thieno[2,3-d]pyrimidine-6-carboxylic acid ((S)-3-hydroxy-1-methyl-piperidin-4-yl)-amide-hydrochloride], the negative-log IC50 (pIC50) was 7.40.

For `Cc1c(C(=O)NCC2CCCCC2)sc2ncnc(Nc3ccc(F)cc3OC3CCCNC3)c12` (centres unmarked) [Example 29], the pIC50 is 7.28.

For the compound `Cc1c(C(=O)NO)sc2ncnc(Nc3ccc(F)cc3OC3CCN(S(C)(=O)=O)C3)c12` (centres unmarked) [Example 93], the pIC50 is 7.72.

For `Cc1c(C(=O)NCCO)sc2ncnc(Nc3cccnc3O[C@@H]3CCCOC3)c12` [Example 260, 5-Methyl-4-{2-[(R)-(tetrahydro-pyran-3-yl)oxy]-pyridin-3-ylamino}-thieno[2,3-d]pyrimidine-6-carboxylic acid (2-hydroxy-ethyl)-amide], the negative-log IC50 (pIC50) is 7.41.

With `Cc1c(C(=O)NCCCN(C)C)sc2ncnc(Nc3ccc(F)cc3O[C@H]3CCOC3)c12` [Example 108, 4-{4-Fluoro-2-[(S)-(tetrahydro-furan-3-yl)oxy]-phenylamino}-5-methyl-thieno[2,3-d]pyrimidine-6-carboxylic acid (3-dimethylamino-propyl)-amide], the pIC50 was 7.59.

For `Cc1c(C(=O)NCCCN2CCCC2)sc2ncnc(Nc3ccc(F)cc3OC3CCOCC3)c12` [Example 118], the pIC50 is 7.54.

On to `Cc1c(C(=O)NCC2CCCCC2O)sc2ncnc(Nc3ccc(F)cc3OC3CCCNC3)c12` (centres unmarked) [Example 40], for which the pIC50 is 7.46.

In the case of `Cc1ccc(Nc2ncnc3sc(C(N)=O)c(C)c23)c(O[C@H]2CCCNC2)c1` [Example 68, 4-[4-Methyl-2-((S)-piperidin-3-yloxy)-phenylamino]-5-methyl-thieno[2,3-d]pyrimidine-6-carboxylic acid amide], the negative-log IC50 (pIC50) was 7.10.

In the case of `Cc1c(C(N)=O)sc2ncnc(Nc3ccc(F)cc3O[C@H]3CCOC3)c12` [Example 109], the negative-log IC50 (pIC50) is 8.05.

`Cc1c(C(=O)NC(C)C)sc2ncnc(Nc3ccc(F)cc3OC3CCOCC3)c12` [Example 135]: the pIC50 is 7.37.

As for `Cc1c(C(=O)NCCO)sc2ncnc(Nc3ccc(F)cc3O[C@H]3CCCNC3)c12` [Example 15], the negative-log IC50 (pIC50) was 7.51.

Consider `Cc1c(C(=O)NCC2CCOCC2)sc2ncnc(Nc3ccc(F)cc3OC3CCCNC3)c12` (centres unmarked) [Example 32], for which the negative-log IC50 (pIC50) was 7.26.

As to `Cc1c(C(=O)NC2CCN(C)CC2)sc2ncnc(Nc3ccc(F)cc3OC3CCN(S(C)(=O)=O)C3)c12` (centres unmarked) [Example 91], the pIC50 is 7.29.

As to `Cc1c(C(=O)NCCF)sc2ncnc(Nc3ccc(F)cc3OC3CCCNC3)c12` (centres unmarked) [Example 18], the negative-log IC50 (pIC50) was 7.24.

Regarding `Cc1c(C(=O)NCC(C)O)sc2ncnc(Nc3ccc(F)cc3OC3CCOCC3)c12` (centres unmarked) [Example 158], the negative logarithm of the IC50 (pIC50) was 7.38.

For `CNC(=O)c1sc2ncnc(Nc3ccc(F)cc3O[C@H]3CCCNC3)c2c1C` [Example 11, 4-[4-Fluoro-2-((S)-piperidin-3-yloxy)-phenylamino]-5-methyl-thieno[2,3-d]pyrimidine-6-carboxylic acid methylamide], the negative-log IC50 (pIC50) is 7.41.

Take `Cc1c(C(N)=O)sc2ncnc(Nc3ccc(F)cc3O[C@H]3CCCN(CCC(F)(F)F)C3)c12` [Example 9]: the negative-log IC50 (pIC50) is 6.74.

With `Cc1c(C(=O)NCCNc2ccccc2)sc2ncnc(Nc3ccc(F)cc3OC3CCCNC3)c12` (centres unmarked) [Example 43], the negative-log IC50 (pIC50) is 7.25.

As for `Cc1c(C(=O)NC2CCCNCC2)sc2ncnc(Nc3ccc(F)cc3OC3CCOC3)c12` (stereo in doubt) [Compound 277, 4-{4-Fluoro-2-[(R)-(tetrahydro-furan-3-yl)oxy]-phenylamino}-5-methyl-thieno[2,3-d]pyrimidine-6-carboxylic acid azepan-4-ylamide trifluoroacetate], the pIC50 is 7.23.

With `CC(=O)NCCNC(=O)c1sc2ncnc(Nc3ccc(F)cc3OC3CCOCC3)c2c1C` [Example 230], the negative logarithm of the IC50 (pIC50) was 7.31.

Turning to `Cc1c(C(=O)NCCC2CCCN2C)sc2ncnc(Nc3ccc(F)cc3OC3CCOCC3)c12` (centres unmarked) [Example 119], the pIC50 is 7.59.

Consider `Cc1c(C(=O)NCc2cccc3ccccc23)sc2ncnc(Nc3ccc(F)cc3OC3CCCNC3)c12` (centres unmarked) [Example 58], for which the negative-log IC50 (pIC50) is 7.19.

Consider `Cc1c(C(=O)N[C@H]2CC[C@H](CO)CC2)sc2ncnc(Nc3ccc(F)cc3OC3CCOCC3)c12` [Example 129], for which the pIC50 was 7.49.

As to `Cc1c(C(=O)NCCOCCO)sc2ncnc(Nc3ccc(F)cc3OC3CCOCC3)c12` [Example 210], the negative-log IC50 (pIC50) was 7.22.

For the compound `Cc1c(C(N)=O)sc2ncnc(Nc3ccc(F)cc3O[C@@H]3CCCN(CC(F)F)C3)c12` [Example 74, 4-{2-[(R)-1-(2,2-Difluoro-ethyl)-piperidin-3-yloxy]-4-fluoro-phenylamino}-5-methyl-thieno[2,3-d]pyrimidine-6-carboxylic acid amide], the pIC50 was 8.52.

As to `Cc1c(C(=O)N[C@H]2CCNC[C@@H]2O)sc2ncnc(Nc3ccc(F)cc3OC3CCOCC3)c12` [Example 246], the pIC50 is 7.74.

For the compound `Cc1c(C(=O)NCc2ccco2)sc2ncnc(Nc3ccc(F)cc3OC3CCCNC3)c12` (centres unmarked) [Example 22], the negative logarithm of the IC50 (pIC50) is 7.59.

As for `Cc1c(C(=O)NCCC[S+](C)[O-])sc2ncnc(Nc3ccc(F)cc3OC3CCOCC3)c12` (centres unmarked) [Example 236], the pIC50 is 7.48.

As to `CCN(CC)CC(O)CNC(=O)c1sc2ncnc(Nc3ccc(F)cc3OC3CCOCC3)c2c1C` (centres unmarked) [Example 248], the pIC50 is 7.39.

On to `Cc1c(C(=O)NCCCN(C)C)sc2ncnc(Nc3cccnc3O[C@@H]3CCCOC3)c12` [Example 265], for which the negative logarithm of the IC50 (pIC50) is 7.47.

Turning to `Cc1c(C(=O)NCc2cnco2)sc2ncnc(Nc3ccc(F)cc3OC3CCOCC3)c12` [Example 186], the pIC50 is 7.52.

As for `Cc1c(C(=O)NCCN2CCNC2=O)sc2ncnc(Nc3ccc(F)cc3OC3CCOCC3)c12` [Example 214], the pIC50 is 7.12.

Regarding `Cc1c(C(=O)NCc2cocn2)sc2ncnc(Nc3ccc(F)cc3OC3CCOCC3)c12` [Example 198], the negative logarithm of the IC50 (pIC50) is 7.54.

As for `COCCN1CCC[C@H](Oc2cc(F)ccc2Nc2ncnc3sc(C(N)=O)c(C)c23)C1` [Example 1, 4-{4-Fluoro-2-[(S)-1-(2-methoxy-ethyl)-piperidin-3-yloxy]-phenylamino}-5-methyl-thieno[2,3-d]pyrimidine-6-carboxylic acid amide], the negative-log IC50 (pIC50) is 6.31.

For the compound `C#CCNC(=O)c1sc2ncnc(Nc3ccc(F)cc3OC3CCOCC3)c2c1C` [Example 229], the pIC50 is 7.57.

On to `Cc1c(C(=O)NCCCCO)sc2ncnc(Nc3ccc(F)cc3OC3CCOCC3)c12` [Example 155], for which the pIC50 is 7.42.

Regarding `Cc1c(C(=O)NCCCS(C)(=O)=O)sc2ncnc(Nc3ccc(F)cc3OC3CCOCC3)c12` [Example 193], the pIC50 is 7.48.

Regarding `Cc1c(C(=O)NCC2CNCCO2)sc2ncnc(Nc3ccc(F)cc3OC3CCOCC3)c12` (centres unmarked) [Example 127], the pIC50 is 7.77.

For the compound `Cc1c(C(N)=O)sc2ncnc(Nc3ccc(F)cc3O[C@@H]3CCCN(CCC(F)(F)F)C3)c12` [Example 79], the negative logarithm of the IC50 (pIC50) was 7.92.

On to `Cc1c(C(=O)NC2CCCN(C(=O)OC(C)(C)C)CC2)sc2ncnc(Nc3ccc(F)cc3O[C@H]3CCOC3)c12` (stereo partly drawn) [Example 272, 4-[(4-{4-Fluoro-2-[(S)-(tetrahydro-furan-3-yl)oxy]-phenylamino}-5-methyl-thieno[2,3-d]pyrimidine-6-carbonyl)-amino]-azepane-1-carboxylic acid tert-butyl ester], for which the negative-log IC50 (pIC50) is 7.40.

On to `Cc1c(C(=O)NCC2(O)CC2)sc2ncnc(Nc3ccc(F)cc3OC3CCOCC3)c12` [Example 178], for which the negative logarithm of the IC50 (pIC50) was 7.33.

`Cc1c(C(N)=O)sc2ncnc(Nc3ccc(F)cc3O[C@@H]3CN[C@H](CO)C3)c12` [Example 115, 4-[4-Fluoro-2-((3S,5S)-5-hydroxymethyl-pyrrolidin-3-yloxy)-phenylamino]-5-methyl-thieno[2,3-d]pyrimidine-6-carboxylic acid amide]: the negative logarithm of the IC50 (pIC50) is 7.00.

On to `Cc1c(C(N)=O)sc2ncnc(Nc3ccc(F)cc3O[C@H]3CCCN(CC(C)C)C3)c12` [Example 7], for which the pIC50 is 5.36.

In the case of `CONC(=O)c1sc2ncnc(Nc3cccnc3O[C@@H]3CCCOC3)c2c1C` [Example 261], the pIC50 was 7.34.

Turning to `Cc1c(C(=O)NCCCN2CC[C@@H](O)C2)sc2ncnc(Nc3ccc(F)cc3OC3CCOCC3)c12` [Example 249], the pIC50 was 7.68.

In the case of `Cc1c(C(N)=O)sc2ncnc(Nc3ccc(Cl)cc3O[C@H]3CCCNC3)c12` [Example 66, 4-[4-Chloro-2-((S)-piperidin-3-yloxy)-phenylamino]-5-methyl-thieno[2,3-d]pyrimidine-6-carboxylic acid amide], the negative logarithm of the IC50 (pIC50) was 8.00.

Take `Cc1c(C(=O)NCCc2c[nH]cn2)sc2ncnc(Nc3ccc(F)cc3OC3CCOCC3)c12` [Example 233]: the negative-log IC50 (pIC50) was 7.57.

In the case of `Cc1c(C(=O)NCCC(=O)N(C)C)sc2ncnc(Nc3ccc(F)cc3OC3CCOCC3)c12` [Example 167], the negative-log IC50 (pIC50) was 7.37.

On to `Cc1c(C(=O)NCCCN2CCOCC2)sc2ncnc(Nc3ccc(F)cc3OC3CCOCC3)c12` [Example 212], for which the pIC50 is 7.51.

Regarding `Cc1c(C(=O)NCCc2cn[nH]c2O)sc2ncnc(Nc3ccc(F)cc3OC3CCOCC3)c12` [Example 195], the pIC50 is 7.17.

What is called pIC50 is the negative decadic logarithm of the IC50, by convention in mol/L.
